In patent US5795756A, “Method and compounds for the inhibition of adenylyl cyclase” (priority 1996, dated 1998):
Where two headings read alike, the source gives them in different places. One block for each compound: values may come before it.

Assays:
adenylyl cyclases = conditions: related art, cited from earlier work; for inhibition of adenylyl cyclases via P-site: in words; for IC50: read-out: IC50 for inhibition of adenylyl cyclases
[1] = target: rat brain adenylyl cyclase; test: Inhibition of detergent-dispersed rat brain adenylyl cyclase (Table I); type: biochemical; conditions: for inhibition of adenylyl cyclase activity compared with adenosine: in words, relative to adenosine
Description: Detergent-dispersed adenylyl cyclase from rat brain was prepared as previously described^58. Activities were determined in a reaction mixture containing 50 mM N-[2-hydroxyethyl]-piperazine-N'-[2-ethanesulfonic acid] (HEPES) or 50 mM triethanolamine.cndot.HCl, pH 7.5, 5 mM MnCl2, 100 μM 5'ATP, [α-^32 p]5'ATP (ca. 2 to 5×10^5 dpm), 0.1% (w/v) Lubrol-PX, 1 mM 3-isobutyl-1-methyl-xanthine, 1 mM dithiothreitol, 1 mg bovine serum albumin per ml, 2 mM creatine phosphate, 100 μg creatine kinase per ml, and 100 μM forskolin, in a reaction volume of 100 μl. Reactions were for 15 min at 30° C. and were terminated by the addition of 0.6 ml 120 mM zinc acetate containing 0.5 mM cAMP and 0.5 ml 144 mM sodium carbonate as described by Jakobs et al.^59.
The resulting ZnCO3 precipitate was sedimented by centrifugation in a desktop microfuge. The [^32 P] cAMP in the supernatant fraction was then purified free of residual substrate and other contaminants by sequential chromatography on Dowex-50 and Al2 O3, as described by Salomon et al.^60. [^32 P]cAMP was quantified by Cherenkov radiation in a liquid scintillation spectrometer.
The synthesized adenine derivatives, 1-5, 8, 11-13, 16, 19-21, 34 and 35 were each tested separately in vitro for their ability to inhibit adenylyl cyclase activity by administration of each compound to the above-describedadenylyl cyclase assay.

[2] = target: adenylyl cyclase, Type I, purified recombinant (Bos taurus, UniProt P19754); test: Inhibition of purified recombinant Type I adenylyl cyclase (Table II); type: biochemical; conditions: forskolin eluate
adenylyl cyclase = test: Inhibition of adenylyl cyclase in intact cells and tissues; type: cell-based; conditions: cell permeable variants
[3] = target: adenylyl cyclase, bovine brain, purified; test: Inhibition of purified bovine brain adenylyl cyclase (Table II); type: biochemical; conditions: forskolin eluates from forskolin affinity column
[4] = target: rat brain adenylyl cyclase; conditions: Table I, footnote a: values from Johnson et al. 1989; read-out: IC50 for inhibition of rat brain adenylyl cyclase; cited from earlier work
intestinal epithelium = conditions: cited from earlier work
[5] = Table I, 5 mM MnCl2, 100 μM 5'ATP, 100 μM forskolin, pH 7.5, 15 min at 30° C., read-out: IC50 for inhibition of rat brain adenylyl cyclase
[6] = modified or replaced ribosyl moiety
[7] = Table II, rat brain, detergent extract, values from Table I, read-out: IC50, rat brain detergent extract

Chain of adenylyl cyclase, Type I, purified recombinant (P19754 whole entry): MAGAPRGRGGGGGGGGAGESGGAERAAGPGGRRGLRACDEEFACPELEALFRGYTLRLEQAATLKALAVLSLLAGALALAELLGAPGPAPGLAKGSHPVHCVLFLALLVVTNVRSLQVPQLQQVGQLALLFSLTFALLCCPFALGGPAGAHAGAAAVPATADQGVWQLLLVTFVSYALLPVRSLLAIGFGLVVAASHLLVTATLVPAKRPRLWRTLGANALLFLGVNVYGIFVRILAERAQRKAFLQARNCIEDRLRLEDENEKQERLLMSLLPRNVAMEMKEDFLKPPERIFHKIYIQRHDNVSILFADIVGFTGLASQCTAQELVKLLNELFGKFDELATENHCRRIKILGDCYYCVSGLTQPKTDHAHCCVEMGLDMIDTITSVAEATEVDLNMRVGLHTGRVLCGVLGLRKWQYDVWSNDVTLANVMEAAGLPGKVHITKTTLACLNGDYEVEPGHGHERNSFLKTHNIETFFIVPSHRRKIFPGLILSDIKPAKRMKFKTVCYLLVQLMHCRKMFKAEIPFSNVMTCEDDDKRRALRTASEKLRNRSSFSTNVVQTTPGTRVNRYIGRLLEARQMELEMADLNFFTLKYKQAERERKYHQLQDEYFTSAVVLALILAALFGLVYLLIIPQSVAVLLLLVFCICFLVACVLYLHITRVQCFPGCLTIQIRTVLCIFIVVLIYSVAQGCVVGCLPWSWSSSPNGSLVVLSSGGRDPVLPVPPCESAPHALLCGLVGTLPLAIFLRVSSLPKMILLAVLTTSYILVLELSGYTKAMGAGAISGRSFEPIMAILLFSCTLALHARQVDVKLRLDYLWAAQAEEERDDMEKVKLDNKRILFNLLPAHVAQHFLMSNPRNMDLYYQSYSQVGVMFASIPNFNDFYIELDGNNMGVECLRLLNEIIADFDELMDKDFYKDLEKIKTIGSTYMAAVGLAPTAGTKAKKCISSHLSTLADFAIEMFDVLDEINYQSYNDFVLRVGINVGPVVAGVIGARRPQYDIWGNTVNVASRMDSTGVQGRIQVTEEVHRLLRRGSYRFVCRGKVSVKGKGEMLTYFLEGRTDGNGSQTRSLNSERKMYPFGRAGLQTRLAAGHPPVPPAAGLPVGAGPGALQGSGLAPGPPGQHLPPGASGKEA

SMILES: O=c1ccn([C@@H]2O[C@H](CO)[C@@H](O)[C@H]2O)c(=O)[nH]1 [uridine]
inhibition of adenylyl cyclases via P-site (adenylyl cyclases): inactive

IC50 [1, 5]: 3000 nM
SMILES: C[C@H]1O[C@@H](n2cnc3c(N)ncnc32)C[C@@H]1OP(=O)(O)OCCN(C)S(=O)(=O)c1cccc2c(N(C)C)cccc12 [Compound 1, 2', 5'-dideoxyadenosine-3'-[2-([(5-dimethylamino-1-naphthalenesulfonamido) -(N-methyl)]-aminoethyl)-phosphate]]
inhibition of adenylyl cyclase activity compared with adenosine [1]: inhibited adenylyl cyclase activity at concentrations considerably lower than that for adenosine

SMILES: C[C@H]1O[C@@H](n2cnc3c(N)ncnc32)C[C@@H]1OC(=O)c1ccc(S(=O)(=O)F)cc1 [3'-(4-fluorosulfonylbenzoyl) -2', 5'-dideoxyadenosine]
inhibition of adenylyl cyclases via P-site (adenylyl cyclases): inhibitory effectiveness

SMILES: Nc1ncnc2c1ncn2C1CCCC1 [9-cyclopentyl-adenine]
IC50 (adenylyl cyclases; [6]): ~20000 nM

IC50 [1, 5]: 10 nM
SMILES: C[C@H]1O[C@@H](n2cnc3c(N)ncnc32)C[C@@H]1OP(=O)(O)OP(=O)(O)OP(=O)(O)OP(=O)(O)O [Compound 5, 2', 5'-dideoxyadenosine-3'-tetraphosphate]

IC50 [2]: 1990 nM | IC50 [1, 5]: 460 nM | IC50 [1, 7]: 460 nM
SMILES: C[C@H]1O[C@@H](n2cnc3c(N)ncnc32)C[C@@H]1OP(=O)(O)O [2'5'dd3'AMP]

SMILES: OC[C@H]1O[C@@H](n2cnc3c(O)ncnc32)[C@H](O)[C@@H]1O [inosine]
inhibition of adenylyl cyclases via P-site (adenylyl cyclases): inactive

SMILES: Nc1ncnc2c1ncn2C[C@@H](O)[C@@H](O)C(=O)O [eritadenine]
IC50 (adenylyl cyclases; [6]): 6000 to 12000 nM

SMILES: Nc1ncnc2c1ncn2[C@@H]1O[C@H](CO)[C@@H](O)[C@@H]1O [9-β-D-arabinofuranosyl-adenine]
IC50 (adenylyl cyclases; [6]): ~100000 nM

IC50 [1, 5]: 90 nM
SMILES: Nc1ncnc2c1ncn2[C@H]1C[C@H](OP(=O)(O)OP(=O)(O)OP(=O)(O)O)[C@@H](CO)O1 [Compound 12, 2'-deoxyadenosine-3'-triphosphate]

SMILES: Nc1nc(F)nc2c1ncn2C1CCCC1 [Compound 19, 9-cyclopentyl-2-fluoro-9H-adenine]
inhibition of adenylyl cyclase activity compared with adenosine [1]: inhibited adenylyl cyclase activity at concentrations considerably lower than that for adenosine | inhibition of the enzyme in intact cells and tissues (adenylyl cyclase): inhibit the enzyme in intact cells and tissues

IC50 [3]: 120 nM | IC50 [2]: 170 nM | IC50 [1, 5]: 40 nM | IC50 [1, 7]: 40 nM
SMILES: C[C@H]1O[C@@H](n2cnc3c(N)ncnc32)C[C@@H]1OP(=O)(O)OP(=O)(O)OP(=O)(O)O [Compound 4, 2', 5'-dideoxyadenosine-3'-triphosphate]

SMILES: Nc1ncnc2c1ncn2Cc1ccco1 [9-furfuryl-adenine]
IC50 (adenylyl cyclases; unit printed kM): ~26000 nM

SMILES: C[C@H]1O[C@@H](n2cnc3c(N)ncnc32)C[C@@H]1OC(=O)CCC(=O)O [3'-succinyl-2', 5'-dideoxyadenosine]
inhibition of adenylyl cyclases via P-site (adenylyl cyclases): inhibitory effectiveness

SMILES: Nc1ncnc2c1ncn2[C@H]1C[C@H](O)[C@@H](CO)O1 [2'-deoxyadenosine]
IC50 [4]: 15000 nM

IC50 [1, 5]: 13 nM
SMILES: Nc1ncnc2c1ncn2[C@H]1C[C@H](OP(=O)(O)OP(=O)(O)OP(=O)(O)OP(=O)(O)O)[C@@H](CO)O1 [Compound 13, 2'-deoxyadenosine-3'-tetraphosphate]

IC50 [3]: 560 nM | IC50 [2]: 250 nM | IC50 [1, 5]: 100 nM | IC50 [1, 7]: 100 nM
SMILES: C[C@H]1O[C@@H](n2cnc3c(N)ncnc32)C[C@@H]1OP(=O)(O)OP(=O)(O)O [Compound 3, 2', 5'-dideoxyadenosine-3'-diphosphate]

SMILES: Nc1nc(F)nc2c1ncn2[C@H]1C[C@H](O)[C@@H](CO)O1 [2-fluoro-2'-deoxyadenosine]
inhibition of adenylyl cyclases via P-site (adenylyl cyclases): inhibitory

SMILES: CC(C)CCC[C@@H](C)[C@H]1CC[C@H]2[C@@H]3CC=C4C[C@@H](OP(=O)(O)O[C@H]5C[C@H](n6cnc7c(N)ncnc76)O[C@@H]5C)CC[C@]4(C)[C@H]3CC[C@]12C [Compound 2, 2', 5'dideoxyadenosine-3'-[(3-cholesteryl)-phosphate]]
IC50 [1, 5]: > 300000 nM | inhibition of adenylyl cyclase activity compared with adenosine [1]: less effective than adenosine in the inhibition of adenylyl cyclase activity

IC50 [1, 5]: 140 nM
SMILES: Nc1ncnc2c1ncn2[C@H]1C[C@H](OP(=O)(O)OP(=O)(O)O)[C@@H](CO)O1 [Compound 11, 2'-deoxyadenosine-3'-diphosphate]

SMILES: C[C@H]1O[C@@H](n2cnc3c(N)ncnc32)C[C@@H]1OP(O)(O)=S [Compound 8, 2', 5'-dideoxyadenosine-3'-O-thiophosphate]
inhibition of adenylyl cyclase activity compared with adenosine [1]: inhibited adenylyl cyclase activity at concentrations considerably lower than that for adenosine

SMILES: CC1CCC(n2cnc3c(N)ncnc32)O1 (centres unmarked) [9-(tetrahydro-5-methyl-2-furyl)-adenine]
IC50 (adenylyl cyclases; [6]): ~8000 nM

SMILES: Nc1ncnc2c1ncn2[C@H]1C[C@H](OP(O)(O)=S)[C@@H](CO)O1 [Compound 16, 2'-deoxyadenosine-3'-O-thiophosphate]
inhibition of adenylyl cyclase activity compared with adenosine [1]: inhibited adenylyl cyclase activity at concentrations considerably lower than that for adenosine

IC50 [1, 5]: 3900 nM
SMILES: Nc1ncnc2c1ncn2[C@@H]1O[C@H](CO)[C@@H](OP(=O)(O)OP(=O)(O)O)[C@H]1O [Compound 34, adenosine-3'-diphosphate]

SMILES: Nc1cc[nH]c(=O)n1 [cytosine]
inhibition of adenylyl cyclases via P-site (adenylyl cyclases): inactive

IC50 [1, 5]: 8900 nM
SMILES: Nc1ncnc2c1ncn2[C@@H]1O[C@H](CO)[C@@H](OP(=O)(O)O)[C@H]1O [3'AMP]

SMILES: Nc1nc2c(ncn2[C@@H]2O[C@H](CO)[C@@H](O)[C@H]2O)c(=O)[nH]1 [guanosine]
inhibition of adenylyl cyclases via P-site (adenylyl cyclases): inactive

SMILES: Nc1ncnc2c1ncn2C1CCCO1 (centres unmarked) [9-(tetrahydro-2-furyl)-adenine]
IC50 (adenylyl cyclases; [6]): ~10000 nM

SMILES: C[C@H]1O[C@@H](n2cnc3c(N)ncnc32)C[C@@H]1O [2',5'-dideoxyadenosine]
IC50 [4]: 2700 nM | counteracting effects of cholera intoxication (intestinal epithelium): used to counteract the effects of cholera intoxication in intestinal epithelium

SMILES: Cc1cn([C@H]2C[C@H](O)[C@@H](CO)O2)c(=O)[nH]c1=O [thymidine]
inhibition of adenylyl cyclases via P-site (adenylyl cyclases): inactive

SMILES: Nc1ncnc2c1ncn2[C@@H]1O[C@H](CO)[C@H](O)[C@H]1O [9-β-D-xylofuranosyl-adenine]
IC50 (adenylyl cyclases; [6]): ~25000 nM

SMILES: Nc1ncnc2c1ncn2[C@H]1C[C@H](OP(=O)(O)O)[C@@H](CO)O1 [2'd3'AMP]
IC50 [4]: 1200 nM

IC50 [1, 5]: 2000 nM
SMILES: Nc1ncnc2c1ncn2[C@@H]1O[C@H](CO)[C@@H](OP(=O)(O)OP(=O)(O)OP(=O)(O)O)[C@H]1O [Compound 35, adenosine-3'-triphosphate]

SMILES: Nc1nc(F)nc2c1ncn2[C@@H]1O[C@H](CO)[C@@H](O)[C@H]1O [2-fluoroadenosine]
inhibition of adenylyl cyclases via P-site (adenylyl cyclases): inhibitory

SMILES: Nc1ncnc2c1ncn2[C@@H]1O[C@H](CO)[C@@H](O)[C@H]1O [adenosine]
IC50 [4]: 82000 nM
